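In this assay, cells in 96-well plates receive the compound at five concentrations for 48 hours. Endpoints are linearly interpolated between the surrounding concentrations. GI50 = concentration required for 50% inhibition of growth. The concentration for full growth arrest is given as TGI.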

Holding throughout (experiment): NCI anticancer screen, dose series, 48 h
Assay [1] concerns CAKI-1 renal.
Assay [2] deals with KM12 colon.
For assay [3], the system named is LOX IMVI melanoma.
For assay [4], the system named is MALME-3M melanoma.
Assay [5] has as its system MDA-MB-435.
For assay [6], the system named is MOLT-4 leukemia.
Assay [7] concerns NCI/ADR-RES ovarian.
The test system of assay [8] is RXF 393 renal.
The subject of assay [9] is SF-268 CNS.
The subject of assay [10] is TK-10 renal.

With `COc1ccc(N=Cc2c(O)ccc3c2oc2cc(Cl)c(O)c(Cl)c23)cc1`, the GI50 is 4.75 µM in [1]; 7.91 µM in assay [2]; 15.1 µM in assay [3]; 3.63 µM in [4]; 11.6 µM in assay [5]; 4.84 µM in [6]. In addition, the GI50 in [7] is 12.2 µM; in assay [8] it was 14.2 µM; in [9] it was 6.68 µM; in [10] it was 20.3 µM. In addition, the TGI was determined as 28.1 µM in [1]; 21.3 µM in [2]; 53.4 µM in assay [3]; 21.8 µM in [4]; 43.2 µM in [5]; 30 µM in assay [6]. Moreover, the TGI in [7] stood at 50.7 µM; in [8] it was 31.4 µM; in assay [9], 29.6 µM; in assay [10] it was 48.3 µM.

As to `CCOC(=O)c1ccccc1OC(=O)NNc1ccccc1`, the GI50 in assay [1] was 0.377 µM; in assay [2], 0.173 µM; in [3], 5 µM; in assay [4], 5.44 µM; in assay [5], 0.531 µM; in [6], 0.465 µM. Also, the GI50 in assay [7] was 3.8 µM; in assay [8], greater than 100 µM; in assay [9], 12.1 µM; in assay [10], 7.05 µM. Besides, the TGI in [1] is greater than 100 µM; in [2], greater than 56.4 µM; in [3], greater than 100 µM; in assay [4] it was greater than 100 µM; in assay [5] it was greater than 100 µM; in assay [6], greater than 100 µM. In addition, the TGI in assay [7], in [8], in assay [9] and in assay [10] was greater than 100 µM in each case.

As to `CCOC(=O)[C@@H](C)C[C@H](Cc1ccccc1)NC(=O)c1nc([C@@H](C[C@H](C(C)C)N(C)C(=O)[C@@H](NC(=O)[C@H]2CCCCN2C)C(C)C)OC(C)=O)sc1CCOCc1ccccc1`, the GI50 in [1] is 0.128 µM; in [2] it was 0.0442 µM; in assay [3], 0.0609 µM; in assay [4] it was 0.0602 µM; in assay [5], 0.0123 µM; in assay [6], 0.132 µM. For the same compound, the GI50 is 0.503 µM in assay [7], 0.0657 µM in assay [8], 0.158 µM in assay [9] and 0.631 µM in assay [10]. Besides, the TGI in [1] came out at 2.18 µM; in assay [2], 1.48 µM; in assay [3], 1.54 µM; in assay [4] it was 2.17 µM; in assay [5] it was 0.0478 µM; in assay [6], 5.61 µM. In addition, the TGI in assay [7] came out at 3.98 µM; in assay [8], 1.53 µM; in [9], 2.3 µM; in assay [10], 5.28 µM.

Regarding `COc1cccc(CCC2CCCN(c3cc(C)nc(N)n3)C2)c1` (centres undefined), the GI50 is 0.385 µM in [1]; 0.315 µM in assay [2]; 0.609 µM in assay [3]; 0.527 µM in assay [4]; 0.153 µM in assay [5]; 0.496 µM in assay [6]. Moreover, the GI50 in assay [7] is 0.394 µM; in [8] it was 0.368 µM; in assay [9], 0.643 µM; in assay [10], 0.794 µM. Moreover, the TGI in assay [1] stood at 13.4 µM; in assay [2], 12.4 µM; in [3], 7.65 µM; in [4], 14.9 µM; in [5], 0.404 µM; in assay [6], 13.2 µM. In addition, the TGI in assay [7] was 5.9 µM; in assay [8], 5.87 µM; in assay [9], 12.5 µM; in assay [10], 14.8 µM.

As for `O=C(O)/C=C/C(=O)N1Cc2cc3ccccc3nc2C1`, the TGI in [1], in assay [2], in assay [3], in assay [4], in [5] and in assay [6] was greater than 100 µM throughout. Moreover, the TGI in [7], in [8], in [9] and in [10] was greater than 100 µM in each case.

`CC[C@H](NC(=O)[C@H]1CCCCN1C)C(=O)N(C)[C@H](C[C@@H](OC(C)=O)c1nc(C(=O)N[C@@H](Cc2ccccc2)C[C@H](C)C(=O)O)cs1)C(C)C`: the GI50 in [1] is 0.00602 µM; in [2], 0.00192 µM; in assay [3], 0.0103 µM; in [4], 0.00538 µM; in [5], less than 0.00143 µM; in assay [6] it was 0.0106 µM. Moreover, the GI50 in assay [7] was 0.0785 µM; in [8] it was 0.00391 µM; in assay [9] it was less than 0.03 µM. For the same compound, the TGI was greater than 14.3 µM in assay [1]; greater than 14.3 µM in [2]; greater than 14.3 µM in assay [3]; greater than 14.3 µM in [4]; 0.00391 µM in assay [5]; greater than 14.3 µM in assay [6]. Besides, the TGI in [7], in assay [8], in assay [9] and in [10] was greater than 14.3 µM in each case.

Values taken from PubChem BioAssay (NCI).
